Organism: Rattus norvegicus
Test: DrugMatrix - Regimen: Daily Repeat
Assay type: toxicity, organism-based, Sprague-Dawley
Parameters: regimen Daily Repeat, gender Male, age 6-8 weeks
Settings: in vivo, po, route oral GAVAGE, vehicle .5 % CMC; for BASOPHIL / EOSINOPHIL / ERYTHROCYTE COUNT / HEMATOCRIT / HEMOGLOBIN / LEUKOCYTE COUNT / LYMPHOCYTE / MEAN CORPUSCULAR HEMOGLOBIN / MEAN CORPUSCULAR HEMOGLOBIN CONCENTRATION / MEAN CORPUSCULAR VOLUME / MONOCYTE / NEUTROPHIL / PLATELET COUNT: tissue Blood; for ALANINE AMINOTRANSFERASE / ALBUMIN / ALKALINE PHOSPHATASE / ASPARTATE AMINOTRANSFERASE / BLOOD UREA NITROGEN / CHLORIDE / CHOLESTEROL / CREATINE PHOSPHOKINASE / CREATININE / GLUCOSE / PHOSPHORUS / POTASSIUM / SODIUM / TOTAL BILIRUBIN / TOTAL PROTEIN: tissue Plasma
[1] = 0 mg/kg, 72 h, dose level Control, time 3 day
[2] = 0 mg/kg, 120 h, dose level Control, time 5 day
[3] = 570 mg/kg, 72 h, dose level High, time 3 day
[4] = 570 mg/kg, 120 h, dose level High, time 5 day

In the case of `COc1ccc2c(c1OC)C(=O)O[C@@H]2[C@H]1c2c(cc3c(c2OC)OCO3)CCN1C` [NOSCAPINE], the BASOPHIL [1] is reported as 0.68%, the EOSINOPHIL [1] is reported as 0.46% and the “ERYTHROCYTE COUNT” value [1] is reported as 7.15 x10E6/uL. The HEMATOCRIT [1] was 45.44%, the HEMOGLOBIN [1] was 14.1 G/DL and the “LEUKOCYTE COUNT” value [1] was 9.78 x10E3/uL. For the same molecule, the LYMPHOCYTE [1] was 84.44%, the “MEAN CORPUSCULAR HEMOGLOBIN” value [1] was 19.72 pg and the “MEAN CORPUSCULAR HEMOGLOBIN CONCENTRATION” value [1] was 31 G/DL. For the same molecule, the “MEAN CORPUSCULAR VOLUME” value [1] was 63.66 fL, the MONOCYTE [1] was 2.14% and the NEUTROPHIL [1] was 11.16%. For the same molecule, the “PLATELET COUNT” value [1] was 1378.2 x10E3/uL, the “ALANINE AMINOTRANSFERASE” value [1] was 42.33 u/L and the ALBUMIN [1] was 3.8 G/DL. The “ALKALINE PHOSPHATASE” value [1] was 388.17 u/L, the “ASPARTATE AMINOTRANSFERASE” value [1] was 68 u/L and the “BLOOD UREA NITROGEN” value [1] was 16.17 mg/dL. For the same molecule, the CHLORIDE [1] was 96.67 MEQ/L, the CHOLESTEROL [1] was 71 mg/dL and the “CREATINE PHOSPHOKINASE” value [1] was 156.17 u/L. It also gave a CREATININE [1] of 0.57 mg/dL, a GLUCOSE [1] of 193.67 mg/dL and a PHOSPHORUS [1] of 11.43 mg/dL. For the same molecule, the POTASSIUM [1] was 7 MEQ/L, the SODIUM [1] was 140.33 MEQ/L and the “TOTAL BILIRUBIN” value [1] was 0.48 mg/dL. The “TOTAL PROTEIN” value [1] was 6.8 G/DL, the BASOPHIL [2] was 1.47% and the EOSINOPHIL [2] was 1%. The “ERYTHROCYTE COUNT” value [2] was 7.12 x10E6/uL, the HEMATOCRIT [2] was 45.47% and the HEMOGLOBIN [2] was 14.1 G/DL. For the same molecule, the “LEUKOCYTE COUNT” value [2] was 11.38 x10E3/uL, the LYMPHOCYTE [2] was 82.57% and the “MEAN CORPUSCULAR HEMOGLOBIN” value [2] was 19.82 pg. The “MEAN CORPUSCULAR HEMOGLOBIN CONCENTRATION” value [2] was 31.02 G/DL, the “MEAN CORPUSCULAR VOLUME” value [2] was 63.88 fL and the MONOCYTE [2] was 2.2%. For the same molecule, the NEUTROPHIL [2] was 11.97%, the “PLATELET COUNT” value [2] was 1267 x10E3/uL and the “ALANINE AMINOTRANSFERASE” value [2] was 38 u/L. For the same molecule, the ALBUMIN [2] was 3.72 G/DL, the “ALKALINE PHOSPHATASE” value [2] was 391 u/L and the “ASPARTATE AMINOTRANSFERASE” value [2] was 65.83 u/L. The “BLOOD UREA NITROGEN” value [2] was 14.17 mg/dL, the CHLORIDE [2] was 107.67 MEQ/L and the CHOLESTEROL [2] was 61 mg/dL. For the same molecule, the “CREATINE PHOSPHOKINASE” value [2] was 148.33 u/L, the CREATININE [2] was 0.57 mg/dL and the GLUCOSE [2] was 177.17 mg/dL. For the same molecule, the PHOSPHORUS [2] was 12.07 mg/dL, the POTASSIUM [2] was 7.2 MEQ/L and the SODIUM [2] was 151.5 MEQ/L. The “TOTAL BILIRUBIN” value [2] was 0.58 mg/dL, the “TOTAL PROTEIN” value [2] was 6.72 G/DL and the BASOPHIL [3] was 0.35%. The EOSINOPHIL [3] was 0.35%, the “ERYTHROCYTE COUNT” value [3] was 7.71 x10E6/uL and the HEMATOCRIT [3] was 48.95%. The HEMOGLOBIN [3] was 15.2 G/DL, the “LEUKOCYTE COUNT” value [3] was 9.57 x10E3/uL and the LYMPHOCYTE [3] was 82.8%. For the same molecule, the “MEAN CORPUSCULAR HEMOGLOBIN” value [3] was 19.7 pg, the “MEAN CORPUSCULAR HEMOGLOBIN CONCENTRATION” value [3] was 31.05 G/DL and the “MEAN CORPUSCULAR VOLUME” value [3] was 63.4 fL. For the same molecule, the MONOCYTE [3] was 3.35%, the NEUTROPHIL [3] was 12% and the “PLATELET COUNT” value [3] was 1473 x10E3/uL. The “ALANINE AMINOTRANSFERASE” value [3] was 27.5 u/L, the ALBUMIN [3] was 3.9 G/DL and the “ALKALINE PHOSPHATASE” value [3] was 381.5 u/L. For the same molecule, the “ASPARTATE AMINOTRANSFERASE” value [3] was 56 u/L, the “BLOOD UREA NITROGEN” value [3] was 17.5 mg/dL and the CHLORIDE [3] was 96 MEQ/L. For the same molecule, the CHOLESTEROL [3] was 131 mg/dL, the “CREATINE PHOSPHOKINASE” value [3] was 176 u/L and the CREATININE [3] was 0.45 mg/dL. For the same molecule, the GLUCOSE [3] was 166 mg/dL, the PHOSPHORUS [3] was 12.8 mg/dL and the POTASSIUM [3] was 6.5 MEQ/L. For the same molecule, the SODIUM [3] was 140.5 MEQ/L, the “TOTAL BILIRUBIN” value [3] was 0.55 mg/dL and the “TOTAL PROTEIN” value [3] was 7.25 G/DL. For the same molecule, the BASOPHIL [4] was 1.17%, the EOSINOPHIL [4] was 0.53% and the “ERYTHROCYTE COUNT” value [4] was 7.1 x10E6/uL. The HEMATOCRIT [4] was 42.8%, the HEMOGLOBIN [4] was 13.67 G/DL and the “LEUKOCYTE COUNT” value [4] was 9.28 x10E3/uL. The LYMPHOCYTE [4] was 75.47%, the “MEAN CORPUSCULAR HEMOGLOBIN” value [4] was 19.27 pg and the “MEAN CORPUSCULAR HEMOGLOBIN CONCENTRATION” value [4] was 31.97 G/DL. For the same molecule, the “MEAN CORPUSCULAR VOLUME” value [4] was 60.33 fL, the MONOCYTE [4] was 2.07% and the NEUTROPHIL [4] was 19.87%. The “PLATELET COUNT” value [4] was 1766.33 x10E3/uL, the “ALANINE AMINOTRANSFERASE” value [4] was 36 u/L and the ALBUMIN [4] was 3.7 G/DL. For the same molecule, the “ALKALINE PHOSPHATASE” value [4] was 318.5 u/L, the “ASPARTATE AMINOTRANSFERASE” value [4] was 57 u/L and the “BLOOD UREA NITROGEN” value [4] was 13.5 mg/dL. For the same molecule, the CHLORIDE [4] was 106 MEQ/L, the CHOLESTEROL [4] was 100 mg/dL and the “CREATINE PHOSPHOKINASE” value [4] was 142 u/L. For the same molecule, the CREATININE [4] was 0.45 mg/dL, the GLUCOSE [4] was 188 mg/dL and the PHOSPHORUS [4] was 12.45 mg/dL. The POTASSIUM [4] was 7 MEQ/L, the SODIUM [4] was 149 MEQ/L and the “TOTAL BILIRUBIN” value [4] was 0.2 mg/dL. For the same molecule, the “TOTAL PROTEIN” value [4] was 6.75 G/DL.
